Results taken from patent US11911373B2, “Attention evaluation and methods for medicating” (TECHNION RESEARCH & DEVELOPMENT FOUNDATION LIMITED, priority 2018, dated 2024).

How the values were obtained:
rat = rat model, cited Avital et al. 2011, PLoS One 6, e22059; cited from earlier work
[1] = tested on: children suffering from ADHD; assay: Auditory Sustained Attention Test (ASAT, pre-pulse inhibition) before and 1 hour after MPH; assay type: in vivo, human; details: re-test about 1 hour after taking MPH, versus baseline
Text: (§1) Test subjects were escorted by their parents, and were asked not to take the MPH treatment in the morning of the experiment, and not to drink stimulating beverages such as coffee or energy drinks. The parents signed the consent form and provided the demographic data, following which the subject commenced the 3 steps procedure: • Baseline ASAT and EDA tests: The child was asked to sit on a stable chair in front of a computer screen, connected with EDA and EMG electrodes and requested to follow the instructions before wearing the headphones: • “You will be hearing different types of tones, some will be powerful and some will be moderate. […] When the session ends, all tones will be terminated” • Children diagnosed with ADHD were asked to take the MPH treatment and come back to the test room after 50 minutes. Controls were asked to take a break and return to the test room after 50 minutes. • Post 1-hour ASAT and EDA tests were conducted as at step 1. Auditory Sustained Attention Test (ASAT) […]
(§2) The session starts with 3 minutes of acclimatization period with 57 dB background noise level that is delivered continuously throughout the session. […] Ten “No stimulus” trials were recorded in order to evaluate baseline noise levels. […] The PPI is calculated as percent of the habituated/inhibited response as follows: 100−(max response to “pre+pulse” trial/max response to “pulse alone” trial×100).

[2] = tested on: children suffering from ADHD; assay: Electro dermal activity (EDA), skin conductance; assay type: in vivo, human; details: baseline higher than controls
Text: Test subjects were escorted by their parents, and were asked not to take the MPH treatment in the morning of the experiment, and not to drink stimulating beverages such as coffee or energy drinks. The parents signed the consent form and provided the demographic data, following which the subject commenced the 3 steps procedure: • Baseline ASAT and EDA tests: The child was asked to sit on a stable chair in front of a computer screen, connected with EDA and EMG electrodes and requested to follow the instructions before wearing the headphones: • “You will be hearing different types of tones, some will be powerful and some will be moderate. […] When the session ends, all tones will be terminated” • Children diagnosed with ADHD were asked to take the MPH treatment and come back to the test room after 50 minutes. Controls were asked to take a break and return to the test room after 50 minutes. • Post 1-hour ASAT and EDA tests were conducted as at step 1. […]
Electrodermal activity was monitored by changes in the skin conductance. […] An isolated skin conductance coupler (Mindlife) applied a constant 0.5V (DC) potential across the electrode pair and measured the conductivity at a sample rate of 10 Hz.
Scoring of the EDA signal: During the 3 minutes acclimatization period (subjected only to a 57 dB background white noise), all electro-dermal responses were counted as non-specific EDAs. […]

[3] = tested on: children suffering from ADHD; assay: Startle response, eye blink probability to startle stimuli; assay type: in vivo, human; details: baseline higher than controls
Text: as §1, §2

COC(=O)C(c1ccccc1)C1CCCCN1 (stereo not shown) [MPH, methylphenidate]
long term hormonal effects (rat): long term hormonal alterations related to hyper-anxiety and aggression | ASAT performance (impairment across all pre-pulse intensities) following MPH treatment [1]: significantly recovered | EDAs (both specific and non-specific) following MPH treatment [2]: do not alternate | eye blink probabilities to startle stimuli following MPH treatment [3]: do not alternate
